Measurements taken from patent EP0627444B1, “Monoacetic derivatives of the peptides leu-phe-ala and ala-leu-phe and their use in identifying and destroying tumour cells, viruses and virus-carrying cells” (priority 1993, dated 1998).
Several values for one entry are separate records, joined by “and”; a condition that tells them apart may be missing. Equal entries are not always repeated.

Experiments:
NK lymphocytes = test: Activation test for NK lymphocytes assessed by means of rosette formation; format: in vivo, female mice belonging to BALB/C strain; conditions: Lot B controls, muramyl dipeptide only
Protocol: In carrying out such a test, all six isomers of the monoacetic derivative of the peptide were used, individually, both in normoergic (germ free) animals (lot A) and in animals previously immunized with muramyl dipeptide (lot B). The method and results of the test are hereinafter reported.
A number of groups, each consisting of 18 randomized animals, were inoculated with 0.1 ml/each of normal saline solution (controls) or 0.1 ml/each of monoacetic peptide in its 6 possible isomers dissolved in normal saline solution. The 17.5 mg/kg dose administered to the animals corresponds to 1/20 of the LD found with respect to these peptides.
Treated and control animals were sacrificed in groups of 6 on the 11th, 13th and 18th day after the inoculation of the normal saline solution or of the peptide. […]
Cell survival was assessed by means of the supravital staining technique with trypan blue. […]
FCS, at a 10% ratio, was added to the above mentioned suspension. Following 5 minutes of incubation at +37 °C and 5 minutes of centrifugation at 200 rpm, the samples were incubated at +4 °C for 18 hours prior to reading the results.
The lymphocytes encircled by 3 or more ram's erythrocytes were considered as rosette-forming lymphocytes. The significance was assessed by means of Student's "T" test. […]

Lewis Lung Carcinoma = test: Lewis Lung Carcinoma, third set of experiments (with MDP); format: in vivo, female mice C57BI/6
Protocol: The tested compound was Ala-Leu-Phe = P1 (SF080) (17.5 mg/kg) in the model of tumour disease caused by Lewis Lung Carcinoma. The compound was also evaluated in combination with muramyl dipeptide (MDP).
Animals: female mice C57BI/6 (Charles River) the average weight of which was 20g were used. The experiment involved overall 48 mice.
The tumour cells of LLC were obtained from the fourth passage of tumour cells. The total number of cells was 2 x 10^5 in 0.1 ml of Hanks solution. The cells were injected subcutaneously into axillary region.
The peptide P1 was administered i.p. in suspension with propylenglycol (0.1 ml/50 ml) in physiological solution. […] The same way of administration as in tested animals (i.p.) was used.
The animals were divided into 4 groups each having 12 mice. In groups 2 and 3 MDP was administered subcutaneously in a dose of 100 µg (0.5 ml physiol. solution per mouse). The protocol of the test is as follows.
The animals in all groups were observed daily for tumour growth. In the control group the tumour growth was so rapid and the animals were in such a condition that the experiment was terminated after 18 days from the administration of tumour cells. Mice were sacrificed and tumour mass was excised and weighed. Both lobes of lungs were inspected for the presence of metastases.
The following parameters have been evaluated in this experiment: • a) the percentage of animals not having the tumour • b) the average weight of the tumour • c) the percentage of animals with metastases in lungs • d) the average number of metastases in case of positive animals
Statistical analysis was performed by the method of one factorial analysis of variance (ANOVA), Dunnett's test and chi-square test. […]

[1] = group 2: MDP 100 µg s.c. day -3, day 18

## muramyl dipeptide [MDP]
NK lymphocytes
  rosette formation after preventive immunization: significant decrement
Lewis Lung Carcinoma; [1]
  Weight of tumours, AVG: 3.24 g
  Weight of tumours, SUM: 29.16 g
  average number of metastases, AVG: 1
  metastase free animals: 64%
  number of metastases, SUM: 9
  tumour-free animals: 18%
Lewis Lung Carcinoma; individual animals, lungs, group 2: MDP 100 µg s.c. day -3, day 18
  number of metastases (meta): 1 and 3 (2×) and 0 (7×) and 2
Lewis Lung Carcinoma; individual animals, group 2: MDP 100 µg subcutaneously day -3, 18 days after tumour cells
  Weight of tumours: 4.88 g and 4.48 g and 1.97 g and 3.13 g and 0 g (2×) and 3.57 g and 2.72 g and 1.81 g and 4.11 g and 2.49 g
